Results taken from patent US5948802A, “Benzoate derivatives of diaryl 1,3,4-oxadiazolone” (Bristol-Myers Squibb Company, priority 1999, dated 1999).
Counter-ions that a name gives are not always drawn.

Tests used:
[1] = Rapid screen of prodrug hydrolysis and drug release in plasma; format: in vitro ADME; settings: 10 ug/mL in fresh rat plasma at 37° C.; analysis 5 minutes after incubation; stock 1 mg/mL in PEG-400
Protocol: A rapid screen to determine the ability of prodrugs to hydrolyze and release the drug (compound of Preparation 1) is conducted as follows. A 1 mg/mL stock solution of the prodrug is prepared in distilled water or acetonitrile or PEG-400. Plasma from freshly collected rat or human blood is used in this assay. To 1 mL of plasma at 37° C. was added 10 μL of stock solution of prodrug and mixed gently. Immediately after the mixing, 100 μL of plasma was removed and quenched with 300 μL of acetontrile (Zero time sample). Samples were also obtained at 30 minutes and quenched immediately. The quenched samples were centrifuged to obtain a clear supernatant for analysis. The stock solution, T=0 and T=30 samples were analyzed by a HPLC assay that separates the drug from the prodrug. Based on the relative peak areas of prodrug and drug in these samples, different prodrugs are characterized as fast, moderate and slow release agents. For example, in this model, the compound of Example 1 was dissolved in PEG-400 at a concentration of 1 mg/mL and incubated at 10 ug/mL in fresh rat plasma at 37° C.

[2] = system: cloned mammalian (mSlo or hSlo) BK-mediated outward current; assay: Increase of cloned BK-mediated outward current in Xenopus oocytes, two-electrode voltage clamp; format: cell-based; settings: 1 μM; at least 5 oocytes; mSlo or hSlo expressed in Xenopus oocytes
Protocol: (§1) The ability of the compound of Preparation 1 to open BK channels and increase whole-cell outward (K^+) BK-mediated currents was assessed under voltage-clamp conditions by determining their ability to increase cloned mammalian (mSlo or hSlo) BK-mediated outward current heterologously expressed in Xenopus oocytes [Butler, A., et al., Science, 261, pp. 221-224 (1993); and Dworetzky, S. I., et al., Mol. Brain Res., 27, pp.189-193 (1994)]. The two BK constructs employed represent nearly structurally identical homologous proteins, and have proven to be pharmacologically identical in our tests. To isolate BK current from native (background, non-BK) current, the specific and potent BK channel-blocking toxin iberiotoxin (IBTX) [Galvez, A., et al., J. Biol. Chem, 265, pp. 11083-11090 (1990)] was employed at a supramaximal concentration (50 nM). The relative contribution of BK channels current to total outward current was determined by subtraction of the current remaining in the presence of IBTX (non-BK current) from the current profiles obtained in all other experimental conditions (control, drug, and wash). […]

[3] = system: non-BK native currents in the oocytes; assay: Effect on non-BK (IBTX-insensitive) native currents in oocytes; format: cell-based, Xenopus; settings: at the tested concentration
Protocol: as §1

focal cerebral ischemia = assay: Focal stroke model: permanent MCA and CCA occlusion, cortical infarct volume; format: in vivo, Wistar rat; settings: 10 μg/kg i.v. single bolus two hours after MCA occlusion; measured 24 hours after MCAO; vs vehicle-treated (water) control
Protocol: To determine the ability of the compounds of the present invention to reduce cell loss resulting from neuronal ischemia, a standard focal cerebral ischemia is induced by permanent occlusion of the left middle cerebral artery (MCA) and common carotid artery (CCA) with one hour occlusion of the right CCA in the Wistar rat. The surgeries are performed using the sub-temporal approach of A. Tamura, et al., J. Cereb. Blood Flow Metab., 1, pp. 53-60, (1981) and its modifications [K. Osborne, et al., J. Neurol Neurosurg. Psychiatry, 50, pp. 402-410 (1987) and S. Menzies,et al., Neurosurgery, 31, pp. 100-107, (1992).]
The compound of Preparation 1 was evaluated in the focal stroke model involving permanent occlusion of the left MCA (MCAO) and CCA (CCAO) and temporary occlusion of the right CCA in the Wistar rat. This procedure results in a reliably large neocortical infarct volume that is measured by means of vital dye exclusion in serial slices through the brain 24 hours after MCAO. In the present test, compounds were administered using an i.v. or i.p. route of administration two hours after occlusion.

For `CCN(CC)Cc1ccc(C(=O)Oc2ccc(Cl)cc2Cn2nc(-c3ccc(C(F)(F)F)cc3)oc2=O)cc1` [Example 1, 4-Chloro-2-[[5-[4-(trifluoromethyl)phenyl]-2,3-dihydro-2-oxo-1,3,4-oxadiazol-3-yl]methyl]phenyl 4-[(diethylamino)-methylbenzoate hydrochloride], the “conversion of prodrug to the compound of Preparation 1” value [1] was “indicated conversion of the compound of Example 1 to the compound of Preparation 1”.

In the case of `O=c1oc(-c2ccc(C(F)(F)F)cc2)nn1Cc1cc(Cl)ccc1O` [Preparation 1, 3-[(5-Chloro-2-hydroxyphenyl)methyl]-5-[4-(trifluoromethyl)phenyl]-1,3,4-oxadiazol-2(3H)-one], the “BK current, % of control of IBTX-sensitive current” value [2] is reported as 126%, the “effect on non-BK native currents in the oocytes” value [3] is reported as “did not effect non-BK native currents” and the “reduction of cortical infarct volume” value (focal cerebral ischemia) is reported as “about 18%”.
